Experimental data taken from PMC8694169 (Microbiology Spectrum, 2021).
Where two headings read alike, the source gives them in different places. Where a SMILES comes first, the peptide text is derived from it. Where no end group is shown, it is not given here.

How the values were obtained:
[1] = system: IFN-γ-producing CD8+ T cells; experiment: Intracellular IFN-γ staining (ICS) of spleen CD8+ T cells after immunization with liposomal peptides; assay type: in vivo, HLA-A*24:02 transgenic mice; details: mice immunized with liposomal peptides + CpG; result in words
CD107a+ CD8+ T cells = experiment: Comparison of conserved top 4 peptides, CD107a on CD8+ T cells; assay type: in vivo, HLA-A*24:02 transgenic mice; details: eight mice immunized with 4-peptide mixture in liposomes with CpG; spleen cells + 50 μM peptide 6 h; one-way ANOVA; Fig. 5B
human lymphocytes = details: epitopes of same sequence submitted as HLA-A*24:02-restricted pp1a-specific CTL epitopes; ref Virus Pathogen Database and Analysis Resource; cited from earlier work
IFN-γ+ CD8+ T cells = experiment: Comparison of conserved top 4 peptides, ICS after immunization with 4-peptide mixture in liposomes; assay type: in vivo, HLA-A*24:02 transgenic mice; details: eight mice immunized with mixture of pp1a-1417, -3104, -3792, -4229 in liposomes with CpG; spleen cells + peptide 5 h; one-way ANOVA; Fig. 5A
HLA-A*24:02 [2] = biological target: T1, HLA-A*24:02 (Homo sapiens, UniProt P04439, D101N/D140Y/D185E/E176V/E190D/F33S/G103R/G107R/I119L/I121M/I306V/K335N/L105A/L180Q/L300P/N151K/N90K/Q86E/Q94H/R106L/R138H/R89G/T104I/T345S/V100E/W191G/Y123F); experiment: cell-based; assay type: binding
HLA-A*24:02 [3] = biological target: T1, HLA-A*24:02; details: ref Virus Pathogen Database and Analysis Resource; cited from earlier work
[4] = […], mean ± SD, triplicate, repeated twice, ND = not detected, read-out: BL50 (half-maximal binding level, peptide concentration that yields 50% relative binding)

Compound | detection of IFN-γ-producing CD8+ T cells in immunized mice [1] | EC50 (HLA-A*24:02 [2]; [4]) [µM] | further results
VYSVIYLYL [pp1a-3104] | significant numbers | 0.5 | dominance in CD107a induction of CD8+ T cells among conserved top 4 peptides (CD107a+ CD8+ T cells): statistically predominant over pp1a-1417 and -4229; result in T cell assays using human lymphocytes (human lymphocytes): negative; dominance in induction of peptide-specific IFN-γ+ CD8+ T cells among conserved top 4 peptides (IFN-γ+ CD8+ T cells): far superior to all other peptides; result in the binding assay (HLA-A*24:02 [3]): positive
MFDAYVNTF [pp1a-2590] | significant numbers | 7.7 ± 0.6 | 
PFWITIAYI [pp1a-3137] |  | 103 ± 8.4 | 
AYILFTRFF [pp1a-2330] | significant numbers | 0.8 ± 0.1 | result in T cell assays using human lymphocytes (human lymphocytes): positive
QYGRSGETL [pp1a-96] |  | 124 ± 10.9 | 
YYRSLPGVF [pp1a-3010] |  | 122 ± 18.8 | 
KFVCDNIKF [pp1a-1929] |  | 61.7 ± 1.6 | 
DYLVSTQEF [pp1a-3812] |  |  | EC50 (HLA-A*24:02 [2]; SD): 0.9 ± 0.1 µM
YYKKDNSYF [pp1a-1899] | significant numbers | 0.3 | result in T cell assays using human lymphocytes (human lymphocytes): positive
TFFKLVNKF [pp1a-677] |  | 55.9 ± 3.3 | 
LFVAAIFYL [pp1a-2781] |  | 183 ± 8.2 | 
FYWFFSNYL [pp1a-3153] | significant numbers | 3.9 ± 1.3 | 
NFTIKGSFL [pp1a-3396] |  | 134 ± 7.6 | 
GYKSVNITF [pp1a-835] | significant numbers | 0.1 | 
CC(C)C[C@H](NC(=O)[C@H](CC(C)C)NC(=O)[C@H](CS)NC(=O)[C@H](Cc1ccccc1)NC(=O)[C@H](CC(C)C)NC(=O)CNC(=O)[C@H](Cc1ccccc1)NC(=O)[C@H](Cc1ccc(O)cc1)NC(=O)[C@@H](N)CS)C(=O)O [pp1a-3792] (H-CYFGLFCLL-OH; N-terminus and C-terminus assumed) | significant numbers |  | 
GYVTHGLNL [pp1a-1451] |  | 109 ± 8.9 | 
IYLYLTFYL [pp1a-3108] |  | 100 ± 13.8 | 
KYLYFIKGL [pp1a-4226] |  |  | EC50 (HLA-A*24:02 [2]; SD): 109 ± 1.3 µM
FYVLGLAAI [pp1a-2338] | significant numbers | 0.7 ± 0.1 | 
MFTPLIQPI [pp1a-3030] |  | 251 ± 88.7 | 
VYEKLKPVL [pp1a-620] |  | 264 ± 21.4 | 

Compound | detection of IFN-γ-producing CD8+ T cells in immunized mice [1] | EC50 (HLA-A*24:02 [2]; [4]) [µM] | further results
YYHTTDPSF [pp1a-1634] |  | 0.04 | 
SYLFQHANL [pp1a-1733] |  | 3 ± 0.4 | 
AFYILPSII [pp1a-1352] |  | 64.4 ± 9.2 | 
DYQGKPLEF [pp1a-954] |  | 126 ± 23.9 | 
DFVKATCEF [pp1a-335] |  | 127 ± 3.8 | 
DYKHYTPSF [pp1a-1971] |  | 58.4 ± 11.7 | 
YFTEQPIDL [pp1a-1906] |  | 113 ± 9.4 | 
MFLARGIVF [pp1a-3752] | significant numbers | 24.2 ± 1.5 | 
TFCAGSTFI [pp1a-2457] |  | 127 ± 20.2 | 
SYGADLKSF [pp1a-135] |  | 104 ± 17.7 | 
AFLPFAMGI [pp1a-3610] |  | 183 ± 8.2 | 
FYLTNDVSF [pp1a-3114] | significant numbers | 0.01 | result in T cell assays using human lymphocytes (human lymphocytes): negative; result in the binding assay (HLA-A*24:02 [3]): positive
FFSYFAVHF [pp1a-2350] | significant numbers | 1.4 ± 0.1 | 
TFHLDGEVI [pp1a-1543] |  | 100 ± 6.8 | 
IFGTVYEKL [pp1a-616] |  | 122 ± 18 | 
QYELKHGTF [pp1a-1813] |  | 141 ± 8 | 
KFLTENLLL [pp1a-1247] |  | 33.4 ± 1.9 | 
LYCIDGALL [pp1a-1845] | significant numbers | 38.5 ± 8.2 | 
FYENAFLPF [pp1a-3606] | significant numbers | 0.02 ± 0.01 | 
SYSGQSTQL [pp1a-1515] |  | 45.8 ± 10.5 | 
AFVETVKGL [pp1a-486] |  | 278 ± 49.8 | 

Compound | detection of IFN-γ-producing CD8+ T cells in immunized mice [1] | EC50 (HLA-A*24:02 [2]; [4]) [µM] | further results
DYGARFYFY [pp1a-1417] | significant numbers | 16.1 ± 0.8 | 
LYDKLVSSF [pp1a-1182] | significant numbers | 1 ± 0.3 | result in T cell assays using human lymphocytes (human lymphocytes): positive
YFIKGLNNL [pp1a-4229] | significant numbers | 32.1 ± 1.9 | 
KFKEGVEFL [pp1a-634] | significant numbers | 79.6 ± 6.6 | 
YYTSNPTTF [pp1a-1536] |  | 0.05 | 
WFLLLSVCL [pp1a-2232] |  | 279 ± 12.6 | 
LFLMSFTVL [pp1a-3084] |  | 100 ± 7.6 | 
LYIDINGNL [pp1a-1255] | significant numbers | 40.4 ± 8.6 | 
AFEKMVSLL [pp1a-3907] |  | 114 ± 3.1 | 
MYASAVVLL [pp1a-3684] | significant numbers | 0.4 ± 0.1 | result in T cell assays using human lymphocytes (human lymphocytes): negative; result in the binding assay (HLA-A*24:02 [3]): positive
NFNQHEVLL [pp1a-1137] |  | 55.3 ± 2 | 
PYCYDTNVL [pp1a-2931] |  | 6.8 ± 1 | 
TFDNLKTLL [pp1a-1552] |  | 96.1 ± 1.6 | 
AFGLVAEWF [pp1a-2320] |  | 135 ± 39.1 | 
TFNGECPNF [pp1a-265] | significant numbers | 1.7 ± 0.4 | result in T cell assays using human lymphocytes (human lymphocytes): positive
NYLKRRVVF [pp1a-3159] |  | 114 ± 5.3 | 
NFSKLINII [pp1a-2222] |  | 181 ± 32.5 | 
VFLFVAAIF [pp1a-2779] | significant numbers | 8.6 ± 0.4 | 
MFVKHKHAF [pp1a-3627] |  | 241 ± 33.6 | 
